Measurements: ChEMBL document CHEMBL1201862, “PubChem BioAssay data set” (2004)
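How tested: cells in 96-well plates exposed to compound for 48 hours at five concentrations. GI50 is the concentration that inhibits growth by half.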 Active and inactive are the calls of the source. No stated cut-off is given here; in the data, active = GI50 up to about 1.1 µM and inactive = higher.

Tests used:
Test in all cases: NCI anticancer screen, dose series, 48 h
IGROV-1 = test system: IGROV-1
SR = test system: SR
PC-3 = test system: PC-3
DU-145 = test system: DU-145
MDA-MB-435 = test system: MDA-MB-435
NCI-H522 = test system: NCI-H522
HT-29 = test system: HT-29
U-251 = test system: U-251
A549 = test system: A549
OVCAR-5 = test system: OVCAR-5
CCRF-CEM = test system: CCRF-CEM
SF-539 = test system: SF-539
HCT-116 = test system: HCT-116
SK-MEL-28 = test system: SK-MEL-28
NCI-H226 = test system: NCI-H226
HCT-15 = test system: HCT-15
SK-OV-3 = test system: SK-OV-3
Malme-3M = test system: Malme-3M
BT-549 = test system: BT-549
M14 = test system: M14
NCI-H460 = test system: NCI-H460
SN12C = test system: SN12C
OVCAR-8 = test system: OVCAR-8
OVCAR-4 = test system: OVCAR-4
RXF 393 = test system: RXF 393
UACC-62 = test system: UACC-62
CAKI-1 = test system: CAKI-1
SK-MEL-2 = test system: SK-MEL-2
SW-620 = test system: SW-620
COLO 205 = test system: COLO 205
SK-MEL-5 = test system: SK-MEL-5
OVCAR-3 = test system: OVCAR-3
ACHN = test system: ACHN
HL-60 = test system: HL-60
SNB-75 = test system: SNB-75
K562 = test system: K562
UACC-257 = test system: UACC-257
EKVX = test system: EKVX
NCI-H23 = test system: NCI-H23
A498 = test system: A498
MOLT-4 = test system: MOLT-4
SNB-19 = test system: SNB-19
NCI/ADR-RES = test system: NCI/ADR-RES
TK-10 = test system: TK-10
MDA-MB-231 = test system: MDA-MB-231
HOP-92 = test system: HOP-92
786-0 = test system: 786-0
SF-295 = test system: SF-295
MCF7 = test system: MCF7
LOX IMVI = test system: LOX IMVI
KM12 = test system: KM12
MDA-N = test system: MDA-N
T47D = test system: T47D
UO-31 = test system: UO-31

Measured: GI50

CO[P@]1(=O)O[C@@H](c2ccccc2)[C@H](O)[C@@]1(O)c1ccccc1
> 100 µM: HCT-15
inactive: IGROV-1 > 100 µM | SR > 100 µM | PC-3 > 100 µM | DU-145 > 100 µM | MDA-MB-435 > 100 µM | NCI-H522 > 100 µM | HT-29 > 100 µM | U-251 > 100 µM | A549 > 100 µM | OVCAR-5 > 100 µM | CCRF-CEM > 100 µM | SF-539 > 100 µM | HCT-116 > 100 µM | SK-MEL-28 > 100 µM | NCI-H226 > 100 µM | SK-OV-3 > 100 µM | Malme-3M > 100 µM | BT-549 > 100 µM | M14 > 100 µM | NCI-H460 > 100 µM | SN12C > 100 µM | OVCAR-8 > 100 µM | OVCAR-4 > 100 µM | RXF 393 > 100 µM | UACC-62 > 100 µM | CAKI-1 > 100 µM | SK-MEL-2 > 100 µM | SW-620 > 100 µM | COLO 205 > 100 µM | SK-MEL-5 > 100 µM | OVCAR-3 > 100 µM | ACHN > 100 µM | HL-60 > 100 µM | SNB-75 > 100 µM | K562 > 100 µM | UACC-257 > 100 µM | EKVX > 100 µM | NCI-H23 > 100 µM | A498 > 100 µM | MOLT-4 > 100 µM | SNB-19 > 100 µM | NCI/ADR-RES > 100 µM | TK-10 > 100 µM | MDA-MB-231 > 100 µM | HOP-92 > 100 µM | 786-0 > 100 µM | SF-295 > 100 µM | MCF7 > 100 µM | LOX IMVI > 100 µM | KM12 > 100 µM | MDA-N > 100 µM | T47D > 100 µM | UO-31 > 100 µM
